Laboratory results taken from patent US20220178931A1, “Sensor” (The University of Bristol, priority 2019, published 2022).

Legend:
[1] = DPH displacement from alpha-helical barrel, competitive inhibition assay, analyte retinol; type: binding; conditions: barrel incubated with DPH or TMA-DPH; analyte 0.05-300 μM; fluorescence; read-out: Retinol K1
Procedure: (§1) The four analytes below were selected based on having hydrophobic properties and being able to adopt an elongate configuration, as these were postulated to have the best chance of displacing a reporter dye.
(§2) DPH was used as the reporter dye, and displacement of DPH was recorded using a standard competitive inhibition assay. In other words, the ability of an analyte to inhibit DPH binding was recorded by the inhibition constant Ki. Alpha-helical barrels were incubated with DPH, or its cationic variant 1-(4-trimethylammoniumphenyl)-6-phenyl-1,3,5-hexatriene p-toluenesulfonate (TMA-DPH). Analyte was added (0.05-300 μM) and the fluorescence signal measured.

[2] = DPH displacement from alpha-helical barrel, competitive inhibition assay, analyte beta-carotene; conditions: barrel incubated with DPH or TMA-DPH; analyte 0.05-300 μM; fluorescence; dash = no competitive binding observed; read-out: B-carotene K1
Procedure: as §1, §2

[3] = DPH displacement from alpha-helical barrel, competitive inhibition assay, analyte palmitic acid; type: binding; conditions: barrel incubated with DPH or TMA-DPH; analyte 0.05-300 μM; fluorescence; read-out: Palmitic acid K1
Procedure: as §1, §2

[4] = Prodan reporter dye binding to alpha-helical barrel lumen (fluorescence titration); conditions: for Kd: prodan 1 μM incubated with alpha-helical barrel 0.5-500 μM for up to 2 hours, fluorescent signal, dash = did not bind; for prodan binding to alpha-helical barrel (in words): summary of KD table
Procedure: (§3) The dyes 1,6-diphenyl-1,3,5-hexatriene (DPH) and 6-propionyl-2-dimethylaminonaphthalene (prodan) were assayed against a number of alpha-helical barrels to determine their dissociation constants, KD. DPH or prodan (1 μM) was incubated with varying concentrations of alpha-helical barrel (0.5-500 μM) for up to 2 hours, and the fluorescent signal measured at the corresponding emission wavelength.

[5] = DPH displacement from alpha-helical barrel, competitive inhibition assay, analyte farnesol; conditions: barrel incubated with DPH or TMA-DPH; analyte 0.05-300 μM; fluorescence; dash = no competitive binding observed; read-out: Famesol K1
Procedure: as §1, §2

[6] = DPH reporter dye binding to alpha-helical barrel lumen (fluorescence titration); conditions: DPH 1 μM incubated with alpha-helical barrel 0.5-500 μM for up to 2 hours; fluorescent signal
Procedure: as §3

Sequence	Ki [1]	Ki [2]	Ki [3]	Kd [4]	prodan binding to alpha-helical barrel (in words) [4]	Ki [5]	Kd [6]
GELKAIAQELKAIAKELKAIAWELKAIAQG [CC-Hex, 6 helices in barrel]	6.4 ± 3.2 µM	> 300 µM	1 ± 0.3 µM	> 500 µM	did not bind	23.9 ± 2.4 µM	7.1 ± 1.3 µM
GKIEQILQKIEKILQKIEWILQKIEQILQG [CC-Pent, alpha helix self-assembling into alpha-helical barrel]	14.8 ± 4.1 µM	> 300 µM	1.1 ± 0.5 µM	> 500 µM	did not bind	> 300 µM	22.4 ± 4.3 µM
GEIAQALREIAKALREIAWALREIAQALRG [CC-Hept, 7 helices in barrel]	4 ± 0.7 µM	12.1 ± 5.4 µM	0.9 ± 0.3 µM	40.5 ± 4 µM		0.6 ± 0.2 µM	8.9 ± 2.2 µM
GEIAKSLKEIAKSLKEIAWSLKEIAKSLKG [CC-Hex2, 6 helices in barrel]	4.6 ± 1.9 µM	> 300 µM	1.1 ± 0.3 µM	39.2 ± 6.8 µM		8.6 ± 1.3 µM	9.5 ± 1.1 µM
